The record followed here is patent US20220273659A1, “HETEROCYCLIC COMPOUNDS AS KINASE INHIBITORS” (NUVATION BIO INC., priority 2019, published 2022).

For one test, the target named is T1, CDK4 (Homo sapiens, UniProt P11802).
T1 construct: purchased Invitrogen PR8064A
Briefly: In vitro kinase inhibition IC50, luminescence (ADP Glo), retinoblastoma substrate. The format is biochemical. The settings on record: read-out: CDK4/D1 IC50. In short, it runs like this: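 Inhibition of CDK4 was quantified by ADP Glo luminescence with retinoblastoma as substrate. Reactions held 5 nM kinase, 1 μM retinoblastoma and 25 μM ATP and ran 2H at room temperature. A Synergy Neo reader took signals 15 min and 45 min after detection reagent, and percent inhibition was fitted to a four-parameter logistic model in XLfit to obtain IC50.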
Background: ADP-Glo first removes unused ATP, then detects ADP through luciferase.

The target of the next test is T2, CDK6 (Homo sapiens, UniProt Q00534).
T2 construct: purchased Invitrogen PR8422B
Described as above. Format: biochemical. The settings on record: read-out: CDK6/D1 IC50. In short, it runs like this:
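IC50 derived by four-parameter logistic fit of percent inhibition, read as ADP-Glo luminescence. Reactions: 5 nM CDK6, 1 μM retinoblastoma, 25 μM ATP, test compound 0.1–200 nM final, 2 h at room temperature.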

Test [1] has as its system DU4475 breast carcinoma cells. Briefly: Cancer cell proliferation assay, single agent (cell viability). The settings on record: Homo sapiens, DU-4475; Table 4; Rb negative; treatment 144 Hr with medium change at 72 Hr; Cell Titer-Glo or resazurin. Format: cell-based. An outline of the steps:
(§1)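 Viability read by resazurin or CellTiter-Glo after 24 h treatment (BT-549) or 144 h with a 72 h medium change (MCF-7, DU4475). Compounds tested at 7–9 concentrations, e.g. 1.1 nM–10 μM, added the day after seeding; IC50 by nonlinear sigmoidal regression.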

In test [2] the test system is MCF-7 breast adenocarcinoma cells. The test is described as above. The settings on record: Homo sapiens, MCF7, Table 4; Rb positive; treatment 144 Hr with medium change at 72 Hr; Cell Titer-Glo or resazurin. The format is cell-based. An outline of the steps: as §1
For orientation: ATP-based viability assays read luminescence as a measure of living cells.

For a further test, the target named is T3, CDK2 (cyclin A) (Homo sapiens, UniProt P24941).
T3 construct: purchased Invitrogen Life Technologies (assay service)
Briefly: Z'-LYTE kinase assay. Format: biochemical. As to the method: IC50 values of compounds against CDK2 (cyclin A) were determined by Z′-LYTE™ These screening assays were performed at Invitrogen Life Technologies (Grand Island, N.Y.) on a low volume NBS, black 384-well plate (#4514, Corning). 0.1 μL of 100×test compound in 100% DMSO (at specific solutions) was mixed with 2.4 μL of Kinase Buffer (50 mM HEPES pH 7.5, 0.01% BRIJ-35, 10 mM MgCl2, 1 mM EGTA), 5 μL of 2× Kinase (1.22-10.3 ng CDK2/cyclin A)/Peptide (2 μM Ser/Thr 12), and 2.5 μL of 4×ATP solution (31 μM). The plates were shaken for 30 seconds, and incubated for 60 minutes at room temperature. Development Reagent Solution (5 μL of 1:1024 dilution) was added to the plates followed with another 30-second plate shake and the plates were further incubated at room temperature for one hour. The plates were read on fluorescence plate reader with Dual emission at 445 nm and 520 nm.
The following equations were used for Z′-LYTE™ Screening Assay Data Analysis. Percent inhibition (100-% activity) was fitted to the “four-parameter logistic model” in XLfit for determination of IC50 values.

For the next test, the target named is T4, CDK1 (cyclin B) (Homo sapiens, UniProt P06493).
T4 construct: purchased Invitrogen Life Technologies (assay service)
The experiment in a line: Z'-LYTE kinase assay. Format: biochemical. As to the method: The plates were shaken for 30 seconds, and incubated for 60 minutes at room temperature. […] The plates were read on fluorescence plate reader with Dual emission at 445 nm and 520 nm.
The following equations were used for Z′-LYTE™ Screening Assay Data Analysis.

Where two headings read alike, the source gives them in different places.

T4 sequence (P06493 whole entry): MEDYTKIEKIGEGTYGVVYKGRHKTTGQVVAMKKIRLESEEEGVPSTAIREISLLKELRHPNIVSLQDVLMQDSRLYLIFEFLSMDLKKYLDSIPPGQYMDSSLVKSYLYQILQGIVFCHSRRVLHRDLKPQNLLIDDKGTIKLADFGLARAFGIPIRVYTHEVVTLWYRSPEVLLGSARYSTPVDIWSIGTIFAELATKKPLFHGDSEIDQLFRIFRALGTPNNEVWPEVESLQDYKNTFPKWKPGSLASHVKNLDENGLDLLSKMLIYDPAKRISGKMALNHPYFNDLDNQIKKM
T4 sequence (P14635 whole entry partner): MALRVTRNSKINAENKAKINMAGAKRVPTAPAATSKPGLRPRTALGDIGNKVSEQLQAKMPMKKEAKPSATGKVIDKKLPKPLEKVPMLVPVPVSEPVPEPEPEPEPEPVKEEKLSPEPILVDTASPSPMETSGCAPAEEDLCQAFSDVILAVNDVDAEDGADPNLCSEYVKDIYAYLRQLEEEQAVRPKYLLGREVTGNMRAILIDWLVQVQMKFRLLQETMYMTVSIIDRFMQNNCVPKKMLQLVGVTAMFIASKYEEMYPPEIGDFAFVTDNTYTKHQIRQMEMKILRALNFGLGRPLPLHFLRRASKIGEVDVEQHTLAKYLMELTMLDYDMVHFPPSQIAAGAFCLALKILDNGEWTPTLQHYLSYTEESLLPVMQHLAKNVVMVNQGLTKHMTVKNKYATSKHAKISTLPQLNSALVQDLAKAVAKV
T2 sequence (Q00534 whole entry): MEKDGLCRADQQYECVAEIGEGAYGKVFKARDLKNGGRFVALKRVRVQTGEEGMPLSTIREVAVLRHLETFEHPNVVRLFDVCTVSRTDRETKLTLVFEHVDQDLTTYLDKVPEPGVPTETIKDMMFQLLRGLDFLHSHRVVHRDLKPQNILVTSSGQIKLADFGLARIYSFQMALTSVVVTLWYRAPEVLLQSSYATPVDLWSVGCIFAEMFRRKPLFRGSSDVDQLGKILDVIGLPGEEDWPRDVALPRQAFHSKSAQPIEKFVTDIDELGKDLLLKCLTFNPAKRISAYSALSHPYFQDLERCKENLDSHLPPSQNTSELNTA
T2 sequence (P24385 whole entry partner): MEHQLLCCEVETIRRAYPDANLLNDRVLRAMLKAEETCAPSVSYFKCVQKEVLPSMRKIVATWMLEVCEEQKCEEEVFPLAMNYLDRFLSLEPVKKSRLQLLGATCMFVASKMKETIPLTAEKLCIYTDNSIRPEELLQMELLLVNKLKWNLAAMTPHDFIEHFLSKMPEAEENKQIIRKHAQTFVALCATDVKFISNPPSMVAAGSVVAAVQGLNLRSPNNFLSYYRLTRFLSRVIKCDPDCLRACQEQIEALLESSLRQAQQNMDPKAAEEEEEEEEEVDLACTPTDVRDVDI
T1 sequence (P11802 whole entry): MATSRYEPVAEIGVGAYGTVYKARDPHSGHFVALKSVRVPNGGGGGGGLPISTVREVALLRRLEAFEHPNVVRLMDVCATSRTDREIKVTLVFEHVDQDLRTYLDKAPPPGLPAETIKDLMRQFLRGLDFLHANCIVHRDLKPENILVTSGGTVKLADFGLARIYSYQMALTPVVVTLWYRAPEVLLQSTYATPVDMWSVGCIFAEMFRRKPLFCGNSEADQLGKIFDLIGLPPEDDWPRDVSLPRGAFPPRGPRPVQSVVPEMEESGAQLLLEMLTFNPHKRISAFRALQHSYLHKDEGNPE
T1 sequence (P24385 whole entry partner): as the sequence (P24385 whole entry partner) above

Regarding `CS(=O)(=O)N1CCC(Nc2ncc3cc(C#N)c(=O)n([C@H]4C[C@@H]5CC[C@H]4C5)c3n2)CC1` [Compound No. 387, 8-((1S,2S,4R)-bicyclo[2.2.1]heptan-2-yl)-2-(1-(methylsulfonyl)piperidin-4-ylamino)-7-oxo-7,8-dihydropyrido[2,3-d]pyrimidine-6-carbonitrile], the IC50 at CDK4 was 20 nM; on CDK6, 17 nM; in test [1], 7060 nM; in test [2], 580 nM; on CDK2 (cyclin A), 88 nM; on CDK1 (cyclin B), 1100 nM.

For the compound `CS(=O)(=O)N1CCC(Nc2ncc3cc(C4CC4)c(=O)n(C4CCCC4)c3n2)CC1` [Compound No. 379, 8-cyclopentyl-6-cyclopropyl-2-((1-(methylsulfonyl)piperidin-4-yl)amino)pyrido[2,3-d]pyrimidin-7(8H)-one], the IC50 is 16 nM on CDK4; 67 nM at CDK6; 4720 nM in test [1]; 1220 nM in test [2]; 434 nM against CDK2 (cyclin A); above 3620 nM at CDK1 (cyclin B) (read-out: CDK1/B IC50).

`CC(C)S(=O)(=O)N1CCC(Nc2ncc3cc(C#N)c(=O)n(C4CCCC4)c3n2)CC1` [Compound No. 355, 8-cyclopentyl-2-((1-(isopropylsulfonyl)piperidin-4-yl)amino)-7-oxo-7,8-dihydropyrido[2,3-d]pyrimidine-6-carbonitrile]: the IC50 on CDK4 was found to be 6.5 nM; on CDK6, 8 nM; in test [1], 1520 nM; in test [2], 495 nM; at CDK2 (cyclin A), 20 nM; against CDK1 (cyclin B) it was 362 nM.

In the case of `N#Cc1cc2cnc(Nc3ccc4c(c3)CN(CCN)CC4)nc2n(C2CCCC2)c1=O` [Compound No. 65, 2-((2-(2-aminoethyl)-1,2,3,4-tetrahydroisoquinolin-7-yl)amino)-8-cyclopentyl-7-oxo-7,8-dihydropyrido[2,3-d]pyrimidine-6-carbonitrile], the IC50 at CDK4 is 17 nM; at CDK6, 15 nM; in test [1] it was 1990 nM; in test [2], 569 nM; against CDK2 (cyclin A), 169 nM; on CDK1 (cyclin B) (read-out: CDK1/B IC50), 791 nM.

Consider `N#Cc1cc2cnc(Nc3ccc4c(c3)CCNC4)nc2n(C23CC(C2)C3)c1=O` [Compound No. 370, 8-(bicyclo[1.1.1]pentan-1-yl)-7-oxo-2-((1,2,3,4-tetrahydroisoquinolin-6-yl)amino)-7,8-dihydropyrido[2,3-d]pyrimidine-6-carbonitrile], for which the IC50 at CDK4 was 124 nM; at CDK6 it was 47 nM; in test [1], 1220 nM; in test [2], 445 nM; against CDK2 (cyclin A) it was 242 nM; at CDK1 (cyclin B) (read-out: CDK1/B IC50) it was 2730 nM.

For the compound `CS(=O)(=O)N1CCC(Nc2cc3c(cn2)cc(C#N)c(=O)n3C2CCCC2)CC1` [Compound No. 303, 1-cyclopentyl-7-((1-(methylsulfonyl)piperidin-4-yl)amino)-2-oxo-1,2-dihydro-1,6-naphthyridine-3-carbonitrile], the IC50 at CDK4 is 3 nM; on CDK6, 3 nM; in test [1], 710 nM; in test [2], 660 nM; against CDK2 (cyclin A) it was 4.5 nM; on CDK1 (cyclin B) (read-out: CDK1/B IC50), 97 nM.

Turning to `CS(=O)(=O)N1CCC(Nc2ncc3cc(C#N)c(=O)n([C@@H]4C[C@H]5CC[C@@H]4C5)c3n2)CC1` [Compound No. 386, 8-((1R,2R,4S)-bicyclo[2.2.1]heptan-2-yl)-2-(1-(methylsulfonyl)piperidin-4-ylamino)-7-oxo-7,8-dihydropyrido[2,3-d]pyrimidine-6-carbonitrile], the IC50 at CDK4 turned out to be 5 nM; on CDK6 it was 4 nM; in test [1], 870 nM; in test [2] it was 270 nM; on CDK2 (cyclin A) it was 9.5 nM; against CDK1 (cyclin B), 118 nM.
